Data as given in PMC5784132, “Investigation of 20S-hydroxyvitamin D3 analogs and their 1α-OH derivatives as potent vitamin D receptor agonists with anti-inflammatory activities” (Scientific Reports, 2018).
Where two headings read alike, the source gives them in different places.

Key:
[1] = set-up: method as in earlier work; conditions: mice, doses as high as 60 µg/kg; cited from earlier work
[2] = rats; cited from earlier work
[3] = biological target: T1, rat CYP24A1 (Rattus norvegicus, UniProt Q09128); assay: Kinetics of metabolism of analogs in phospholipid vesicles by rat CYP24A1; assay type: in vitro ADME; conditions: for Km: rat CYP24A1 0.14 µM, phospholipid vesicles, 1 min incubation, ± SE from curve fit
T1 construct: made in house; host or cells: E. coli
T1 sequence (Q09128 36-514): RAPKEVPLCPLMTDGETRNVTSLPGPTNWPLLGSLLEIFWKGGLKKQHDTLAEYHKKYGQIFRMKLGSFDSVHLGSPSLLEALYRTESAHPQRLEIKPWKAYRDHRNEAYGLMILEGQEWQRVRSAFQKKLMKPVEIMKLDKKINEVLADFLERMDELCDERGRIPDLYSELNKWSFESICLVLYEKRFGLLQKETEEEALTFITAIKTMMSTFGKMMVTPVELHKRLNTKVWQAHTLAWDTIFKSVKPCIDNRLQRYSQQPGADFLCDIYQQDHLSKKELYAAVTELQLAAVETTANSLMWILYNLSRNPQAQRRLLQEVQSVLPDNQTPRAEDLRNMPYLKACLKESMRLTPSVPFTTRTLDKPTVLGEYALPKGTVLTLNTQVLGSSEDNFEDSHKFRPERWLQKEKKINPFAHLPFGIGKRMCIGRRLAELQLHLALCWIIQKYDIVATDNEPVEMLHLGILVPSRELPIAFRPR
Procedure: An incubation time of 1 min was chosen to obtain the initial rate based on the time courses (Fig. 6) and previous studies[28],[29].
To test metabolism of each analog, they were incorporated into phospholipid vesicles made from dioleoyl phosphatidylcholine and cardiolipin by sonication, as before[24],[28]. […] Samples from incubations with CYP24A1 were extracted with dichloromethane and analysed by HPLC using a 25 cm Grace Alltima C18 column, as before[27],[28]. […] For the more polar 33, the acetonitrile gradient was 30% to 100% acetonitrile for 30 min then 100% acetonitrile for 20 min, at 0.5 mL/min.

[4] = tested on: collagen-induced arthritis; set-up: method as in earlier work; conditions: mouse model, dose as low as 2 µg/kg; cited from earlier work

Structure (SMILES)	hypercalcemia [1]	hypercalcemia [2]	Km, fold higher than for 4 ([3]; rat CYP24A1)	catalytic efficiency, fold lower than for 13 ([3]; rat CYP24A1) [fold]	Km [3] [mmol/mol PL]	effect on collagen-induced arthritis [4]	Km, fold lower than that for 20S(OH)D3 ([3]; rat CYP24A1)	kcat/Km, higher than for the next best analog, 4 ([3]; rat CYP24A1) [%]
C=C1CC[C@H](O)C/C1=C/C=C1\CCC[C@@]2(C)[C@H]1CC[C@@H]2[C@@](C)(O)CCCC(C)C [20S(OH)D3, 20S-hydroxyvitamin D3]	does not cause hypercalcemia	does not cause hypercalcemia	over 17 fold	13	34.8 ± 9.4	suppressive effects		
C=C1CC[C@H](O)C/C1=C/C=C1\CCC[C@@]2(C)[C@H]1CC[C@@H]2[C@@](C)(O)CCOC(C)C [compound 13]					7.9 ± 1.5		3–4 fold	72
